Source: PubChem BioAssay AID550 (SRMLSC, 2006)
Active and inactive are the calls of the source.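 How the source made its calls: active means clearly stronger inhibition of the target decarboxylase than of the coupling enzymes tested in parallel without it; inactive means the rest.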

target: diphosphomevalonate decarboxylase (Streptococcus pneumoniae D39); assay: diphosphomevalonate decarboxylase inhibition dose curves – biochemical, PK/LDH-coupled NADH fluorescence, hexokinase coupling counter-screen, dose response (AID 550); conditions: purified DPM-DC

Structure (SMILES) | outcome | IC50
Cc1nc(-c2cnn(-c3ccccc3)c2)c2cc(C)oc2n1 | inactive | 
Cc1cc(=O)[nH]c2ccccc12 | inactive | 
CC(C)(C)CC(=O)Nc1nnc(-c2cccs2)s1 | inactive | 
CCc1cc(/C(Cc2ccc3ccccc3n2)=N\O)c(O)cc1O | inactive | 
CCCOC(=O)Cc1n[nH]c(=O)[nH]c1=O | inactive | 
Cn1c(-c2ccc(N)cc2)nc2ccccc21 | inactive | 
Cc1cccc(C)c1NC(=O)C(c1ccccc1)N1CCN(C(=O)c2ccco2)CC1 (centres undefined) | inactive | 
Cc1cnc(SCCc2ccncc2)nc1C | inactive | 
CC1Cc2nc(SCC(=O)Nc3ccc4c(c3)OCO4)n(CCc3ccccc3)c(=O)c2S1 (centres undefined) | inactive | 
O=C1NC(=O)C(CC(=O)N(c2ccccc2)C2(C(=O)NC3CCCC3)CCCCC2)N1 (centres undefined) | inactive | 
COC(=O)c1cc(OC)c(OC)cc1NC(=O)c1oc2ccccc2c1C | inactive | 
COc1cccc2cc3c(=O)n(-c4ccccc4)nc-3oc12 | inactive | 
Cc1ccccc1CN1CCN(S(=O)(=O)c2ccc(F)cc2)CC1 | inactive | 
CCOc1ccc(N(CC(=O)Nc2ccc(F)c(F)c2)S(=O)(=O)c2c(C)noc2C)cc1 | inactive | 
Cn1c(SCC(=O)N2CCOCC2)nnc1-c1ccc(NC(=O)c2ccccc2F)cc1 | inactive | 
CCN(CC)CCOC(=O)c1ccc(N=CC2=C(O)CC(C)(C)CC2=O)cc1 | inactive | 
Cc1ccc(S(=O)(=O)N2CCOCC(=O)NCCOCCNC(=O)COCC2)cc1 | inactive | 
COCCOC(=O)c1c(C)oc2ccc(NS(=O)(=O)c3ccc(F)cc3)cc12 | inactive | 
C/C=C/Cn1c(N(C)Cc2ccccc2)nc2c1c(=O)[nH]c(=O)n2C | inactive | 
COc1ccc(C(c2nnnn2CC2CCCO2)N2CCN(c3ccccc3)CC2)cc1 (centres undefined) | inactive | 
O=S(=O)(Nc1cccc2ncccc12)c1cccs1 | inactive | 
O=C1CCC(C(=O)N(Cc2ccco2)C2(C(=O)NC3CCCC3)CCCCC2)N1 (centres undefined) | inactive | 

Structure (SMILES) | outcome | IC50
CCOc1ncccc1C(=O)Nc1ccc2c(C)cc(=O)oc2c1 | inactive | 
O=C(Nc1ccc(N2CCCCC2)cc1)c1cccnc1 | inactive | 
CC(C)(O)P(C)(=O)c1ccccc1 (centres undefined) | inactive | 
CCc1ccc(CCC(=O)Nc2ccc(C)c(C)c2)o1 | inactive | 
CCOc1cc(NC(=O)c2ccco2)c(OCC)cc1NC(=O)CCc1ccc(OC)cc1 | inactive | 
Cc1ccc(OCCn2c(C)c(/C=N/n3cnnc3)c3ccccc32)cc1 | inactive | 
CC(=O)c1cccc(NC(=O)Nc2cccnc2)c1 | inactive | 
O=S(=O)(Nc1ccc(C(F)(F)F)cc1)c1cnc[nH]1 | inactive | 
Cc1cc(=O)cc(C)[nH]1 | inactive | 
CCN(CC)c1nc2ccccc2n2cnnc12 | inactive | 
Cn1c(=NC(=O)c2ccco2)sc2cccc(F)c21 | inactive | 
O=C(CSc1nnnn1Cc1ccccc1)NCCc1ccccc1 | inactive | 
O=C(c1ccc(F)cc1)N1CCC(N2CCCCCC2)CC1 | inactive | 
COc1ccc(C(O)Cn2c(=N)n(CCCN(C)C)c3ccccc32)cc1 (centres undefined) | inactive | 
CCCCCn1c(SCC#N)nc2cc(C(=O)NCC3CCCO3)ccc2c1=O (centres undefined) | inactive | 
Cn1c(=O)[nH]c(=O)c2c1nc(NC1CCCCC1)n2Cc1ccccc1 | inactive | 
COC(=O)c1cc2occc2n1CC(=O)Nc1ccc(OC)c(OC)c1OC | inactive | 
CC(NC(=O)c1cccc(N2CCCC2=O)c1)c1ccc2c(c1)OCCO2 (centres undefined) | inactive | 
COC(=O)CC1SC(=O)NC1=Nc1ccccc1 (centres undefined) | inactive | 
CCOC(=O)c1cc2c(=O)n(C)c3ccccc3c2s1 | inactive | 
CCCn1c(=O)c2ccccc2n2c(SCC(=O)/C(C#N)=C(\C)N)nnc12 | inactive | 
O=C(NCc1cccnc1)c1ccc2c(=O)n(CCCN3CCCC3=O)c(=S)[nH]c2c1 | inactive | 

Structure (SMILES) | outcome | IC50
CCCCC(=O)Nc1ccc(C(N)=O)cc1 | inactive | 
O=C(CSc1ncnc2c1cnn2-c1ccccc1)Nc1ccc2c(c1)OCO2 | inactive | 
O=C(c1ccccc1F)N(Cc1ccccc1)C1CCS(=O)(=O)C1 (centres undefined) | inactive | 
CCOC(=O)c1cncc(NC(=O)c2ccccc2)c1 | inactive | 
O=C(CSc1nnc2ccccn12)Nc1ccccc1C(=O)NC1CC1 | inactive | 
N#C/C(=C\C1CC=CCC1)c1nc2ccccc2[nH]1 (centres undefined) | inactive | 
Cc1ccc(C2C3CN(C(C)C)CC=C3C(C#N)=C(N)C2(C#N)C#N)cc1 (centres undefined) |  | 39.6 µM
COc1ccc(C2C3=C(OC(C)=O)c4ccccc4C3=Nc3c2c(=O)n(C)c(=O)n3C)cc1 (centres undefined) | inactive | 
CCCc1nnc(NC(=O)CN2CCOCC2)s1 | inactive | 
COc1cc(-c2nc3cnccc3n2C)cc(OC)c1OC | inactive | 
CN(C)S(=O)(=O)c1cccc(C(=O)C2=C3SC=C(c4ccccc4)N3CC2)c1 | inactive | 
CCc1nnc(NC(=O)CSc2nnc(COc3ccccc3)n2Cc2ccccc2)s1 | inactive | 
COc1cccc(C(=O)OCn2nnc3ccccc3c2=O)c1 | inactive | 
CCOc1nc(-c2ccccc2)ccc1-c1noc(-c2ccc(OC)c(OC)c2)n1 | inactive | 
COc1cc2c(cc1OC)/C(=C/C(=O)N1CCOCC1)NC(C)(C)C2 |  | 38.8 µM
Cc1c(C(=O)NC2CC2)oc2ccc(S(=O)(=O)N3CCCCCC3)cc12 | inactive | 
COc1ccc(-c2cc(C(F)(F)F)nc(SCCC(=O)Nc3cc(C)on3)n2)cc1 | inactive | 
COc1cccc(/C=N\n2c(C)nnc2C)c1OC | inactive | 
COc1ccccc1NC(=O)CSc1nc(O)cc(=O)n1-c1ccccc1OC | inactive | 
O=c1c(-c2ccccc2)c(O)c2cccc3c2n1CCC3 | inactive | 
COc1ccc(C(=O)NCc2cn3c(C)csc3n2)cc1OC | inactive | 
O=C(C1CCCCC1)N1CCC(c2nc3c(nnn3Cc3ccccc3Cl)c(=O)[nH]2)CC1 | inactive | 

Structure (SMILES) | outcome | IC50
C=C(C)Cn1c(COc2ccccc2)nnc1SCC(=O)O | inactive | 
Cc1cccc(OCC(O)Cn2c(-n3nc(C)cc3C)nc3c2c(=O)[nH]c(=O)n3C)c1 (centres undefined) | inactive | 
CCN(CC)CCCN(Cc1cc2cc3c(cc2[nH]c1=O)OCCO3)C(=O)Nc1ccccc1 | inactive | 
CC1=C(C(=O)OCC2CCCO2)C(c2ccncc2)C2=C(CCCC2=O)N1 (centres undefined) |  | inactive
CCOC(=O)C1=C(C)NC(C)=C(C(=O)OCC)C1c1cc2ccc(C)cc2[nH]c1=O |  | 150 µM
Cc1c(NC(=O)C2CCN(S(=O)(=O)c3ccccc3)CC2)c(=O)n(-c2ccccc2)n1C | inactive | 
Clc1c(-c2nnc3n2CCC3)sc2ccccc12 | inactive | 
Cc1c(C(=O)NCC2CCCO2)sc2nc(-c3ccccc3)cn12 (centres undefined) | inactive | 
c1ccc(-c2nc3nonc3c3nc4ccccc4n23)cc1 | inactive | 
Cc1cc(N2CCN(C3CCCC3)CC2)n2nc(C)c(-c3ccccc3)c2n1 | inactive | 
CSc1ncc(Cl)c(C(=O)Nc2nnc(SC)s2)n1 | inactive | 
CCC(=O)Nc1nnc(Sc2ccc(N(C)C)cc2)s1 | inactive | 
COc1ccc(C2CC(c3cccc(C)c3)n3nc(N)nc3N2)cc1 (centres undefined) | inactive | 
Cc1cc(O)c(C=Nc2cccc(Cl)c2)c(=O)o1 | inactive | 
COc1cc(NC(=O)c2cccs2)c(C(=O)OCC(=O)NCc2ccco2)cc1OC | inactive | 
O=P1(NC2CCCC2)COc2ccccc2OC1 | inactive | 
COc1cc(C2C(C#N)=C(C)NC3=C2C(=O)CC(C)(C)C3)cc(OC)c1O (centres undefined) | inactive | 
CN(C)Cc1nc2ccccc2c(=O)n1Cc1nc(-c2cc3ccccc3o2)cs1 | inactive | 
CCOC(=O)c1c(Nc2nc(C)c(C(=O)NC)s2)sc(C)c1C | inactive | 
Cc1ccc(S(=O)(=O)NCCN2CCOCC2)cc1C | inactive | 
COC(=O)Cn1c(=NC(=O)CSC(C)=O)sc2ccccc21 | inactive | 
COc1cc(C(=O)Nc2ccc3c(c2)OCO3)ccc1-n1cnnn1 | inactive | 

Structure (SMILES) | outcome | IC50
COCCn1nnnc1CN(Cc1cccnc1)Cc1cc2cc(OC)ccc2[nH]c1=O | inactive | 
Cc1cc(N2CCOCC2)c2c(N)c(Br)cc(C)c2n1 | inactive | 
CCN(CCNC(=O)C1CCN(c2nnc(-n3cccc3)s2)CC1)c1ccccc1 | inactive | 
N#CC(C(=O)NC1CCCCC1)c1nc2ccccc2nc1N1CCCCC1 (centres undefined) | inactive | 
COc1cccc(C(=O)Nc2ccc(NC(=O)C(C)C)nc2)c1 | inactive | 
OCCNc1ncnc2c1c(-c1ccccc1)c(-c1ccccc1)n2Cc1ccco1 | inactive | 
COc1ccc(N2C(C)=CS/C2=C(/C#N)c2nnc(N3CCOCC3)n2-c2ccccc2)cc1 | inactive | 
Cc1noc(C)c1CSc1nc2ccccc2s1 | inactive | 
COc1cc2c(cc1NC(=O)c1ccc3c(c1)OCO3)oc1ccccc12 | inactive | 
COc1cc2c(C#N)c(N3CCN(c4ccccc4OC)CC3)nc(N)c2c(N)n1 | inactive | 
CCCN1C(=O)C(NC(C)=O)c2cc(OC)ccc21 (centres undefined) | inactive | 
Cc1cc(N2CCN(C(=O)c3ccco3)CC2)n2nc(-c3cccc(Cl)c3)cc2n1 | inactive | 
CCCN(CC(=O)c1cc(C)n(C)c1C)S(=O)(=O)c1cccc(C(F)(F)F)c1 | inactive | 
O=C1C(Cl)=C(NCC2CCCO2)C(=O)N1Cc1ccccc1 (centres undefined) | inactive | 
O=C(O)CCn1nnc(-c2cccs2)n1 | inactive | 
COc1ccc(N2CCN(CCNS(=O)(=O)c3cccc4nsnc34)CC2)cc1 | inactive | 
COCCNC(=O)c1cnn2c(C(F)(F)F)cc(-c3ccc4c(c3)OCO4)nc12 | inactive | 
Cc1nc2oc3c(NCc4ccccn4)ncnc3c2c2c1COC(C)(C)C2 | inactive | 
CCC(=O)Nc1cccc(NC(=O)CSc2nnnn2Cc2ccccc2)c1 | inactive | 
COc1ccccc1CNc1ncnc2nc[nH]c12 | inactive | 
Cc1cccc2cc(CN(Cc3ccco3)S(=O)(=O)c3ccc4c(c3)OCCO4)c(=O)[nH]c12 | inactive | 
